15 compounds from PMC11054337, “Identification of Leishmania donovani PEX5-PTS1 Interaction Inhibitors through Fluorescence Polarization-Based High-Throughput Screening” (Molecules, 2024) can be followed below.

“And” between values parts separate entries of the source, which are not always exact repeats. Equal values may be shown once. Read-outs that look alike come from different tables or passages of the source. No end group written: not given here.

The test system of experiment [1] is L. donovani promastigotes. The experiment can be described thus: L. donovani promastigote growth inhibition (resazurin). It counts as cell-based, Leishmania donovani. Particulars: for IC50: 72 h exposure, three independent replicates, read-out: L. donovani IC50 ± SD. Here is the method:
(§1) All the restriction enzymes used in this study were sourced from New England BioLabs (240 County Road Ipswich, Ipswich, MA, USA). The PTS1 peptides, both unlabeled and fluorescently labeled at the N-terminus with fluorescein isothiocyanate (FITC), were purchased from Peptron (Daejeon, Republic of Korea). All the inhibitors were purchased from Enamine (Kyiv, Ukraine). L. donovani strain MHOM/SD/62/1S-CL2D and L. major strain LV39 (MRHO/Sv/59/P) were cultured in their extracellular promastigote forms. The parasite was cultured at 28 °C using M199 medium (Sigma-Aldrich, St. Louis, MO, USA) supplemented with 40 mM HEPES, 0.1 mM adenine, 0.0001% biotin, and 4.62 mM NaHCO3, along with additional supplements of hemin and xanthine. The T. brucei brucei Lister strain 427 in its bloodstream form (BSF) was cultured at 37 °C in a controlled atmosphere consisting of 5% CO2 in HMI-9 medium enriched with 10% fetal bovine serum (FBS), 100 µg/mL penicillin, and 100 µg/mL streptomycin. The parasites were maintained through only 10 passages for this study.
(§2) Briefly, the assays were conducted in 384-well plates, each well was seeded with 5 × 10^4 parasites, and the compounds were exposed for 72 h. The compounds were tested in dose-diluted format, starting from 100 μM with a two-fold dilution across 10 points. Subsequently, resazurin was added to each well to achieve a final concentration of 200 μM. The plates were then incubated for an additional 5 h before fixation. The assay results were recorded using a Victor3 plate reader (PerkinElmer, Shelton, CT, USA). For the assessment against L. donovani intracellular amastigotes, phorbol 12-myristate 13-acetate-treated THP-1 cells were seeded at 0.8 × 10^4 cells per well in a 384-well plate in RPMI-1640 complete medium supplemented with 10% FBS. After 48 h, the infection was carried out using L. donovani promastigotes with a multiplicity of infection of 10:1. The infected cells were treated with compounds for 72 h, then the cells and parasites were washed, stained with 5 µM 4′,6-diamidino-2-phenylindole (DAPI), and fixed with 4% paraformaldehyde. Images were acquired using Operetta® CLS™ (PerkinElmer, Shelton, CT, USA), and the numbers of parasites and host cells were quantified using Columbus™ software version 2.8 (PerkinElmer, Shelton, CT, USA).
(§3) All half-maximal inhibitory concentration (IC50) values were determined based on data obtained from three independent experiments. The dose–response curves were generated and analyzed using GraphPad Prism 6 software (GraphPad Software, San Diego, CA, USA). For the analysis, a sigmoidal dose–response equation was employed, incorporating a variable hill slope option.

Experiment [2] relates to L. major promastigotes. The experiment can be described thus: L. major promastigote growth inhibition (resazurin). It counts as cell-based, Leishmania major. As to conditions: for IC50: 72 h exposure, three independent replicates, read-out: L. major IC50 ± SD. As for the experimental part:
as §1, §2, §3
In general terms: Resazurin is reduced to fluorescent resorufin, in cell work by metabolically active cells.

For experiment [3], the system named is T. brucei BSF. The experiment is described as follows: T. brucei BSF growth inhibition (resazurin). It counts as cell-based, Trypanosoma brucei. Particulars: for IC50: Trypanosoma brucei, blood stream form, 72 h exposure, three independent replicates, read-out: T. brucei IC50 ± SD; for Growth inhibition of T. brucei (in words): BSF. Here is the method:
as §1, §2, §3

The target in experiment [4] is T1, LdPEX5-PTS1 interaction (Leishmania donovani, UniProt A0A3S7X906).
T1 construct: encoding LdPEX5CT, corresponding to 322 amino acids (AF198051.1: 303-625), was synthesized; 6xHis (pET15b) (N); made in house; host or cells: Escherichia coli BL21 (DE3)
T1 sequence (A0A3S7X906 entry or part of it): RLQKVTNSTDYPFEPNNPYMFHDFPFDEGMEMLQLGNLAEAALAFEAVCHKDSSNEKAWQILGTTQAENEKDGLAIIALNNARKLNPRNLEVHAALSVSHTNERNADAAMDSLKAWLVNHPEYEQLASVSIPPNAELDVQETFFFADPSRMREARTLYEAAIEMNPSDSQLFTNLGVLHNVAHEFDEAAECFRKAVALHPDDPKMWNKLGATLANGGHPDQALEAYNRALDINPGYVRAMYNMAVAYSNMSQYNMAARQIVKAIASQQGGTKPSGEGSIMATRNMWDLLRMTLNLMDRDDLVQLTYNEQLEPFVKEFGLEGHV
The experiment can be described thus: biochemical. As to conditions: 1 µM LdPEX5, 5 nM FITC-SGAGSKL. The class given is binding. Here is the method:
HTS using FP was conducted to identify inhibitors of the LdPEX5-PTS1 interaction. The screening utilized an in-house compound library comprising 51,406 compounds with diverse structural profiles. All compounds were initially solubilized in 100% DMSO with a concentration of 2 mM, and the final testing concentration in the assay was set at 20 μM. DMSO served as the negative control, while unlabeled PTS1 peptide (TRYPAKL) was used as the positive control. The assay mixture included FITC-SGAGSKL peptide and LdPEX5 at final concentrations of 5 nM and 1 μM, respectively. The reaction plates with compounds were incubated for 1 h at room temperature before FP signal detection. Single-point inhibition assays were performed, and the Z’ factor was employed to assess the quality of the assay. The Z’ factor was calculated using the formula Z′ = 1 − 3(σp + σn)/(μp − μn), where σp and σn are the standard deviations of the positive and negative controls, respectively, and μp and μn represent their respective mean values.
as §3

Experiment [5] deals with L. donovani intracellular amastigotes. The experiment is described as follows: L. donovani intracellular amastigote assay in THP-1 cells (image-based). The class given is cell-based, Leishmania donovani. Particulars: infected THP-1 cells, 72 h treatment. As for the experimental part:
as §2

[6] abbreviates: 1 h, three independent replicates, read-out: LdPEX5-PTS1 Inhibition IC50 ± SD.
The mark [7] stands for this setting: IC50 of unlabeled PTS1 peptides, peptide from 60 µM half dilution 10 points.

By IC50 is commonly meant the concentration that gives 50% inhibition. As for `C[C@@H]1[C@H](O)[C@@H](C)/C=C/C=C/C=C/C=C/C=C/C=C/C=C/[C@H](O[C@@H]2O[C@H](C)[C@@H](O)[C@H](N)[C@@H]2O)C[C@@H]2O[C@](O)(C[C@@H](O)C[C@@H](O)[C@H](O)CC[C@@H](O)C[C@@H](O)CC(=O)O[C@H]1C)C[C@H](O)[C@H]2C(=O)O` [Amphotericin B, reference compound], the IC50 in experiment [1] (Leishmania donovani, 72 h) was 0.42 ± 0.03 µM.

For the compound `CCCCCCCCCCCCCCCCOP(=O)([O-])OCC[N+](C)(C)C` [Miltefosine, reference compound], in experiment [2] (Leishmania major, 72 h), the IC50 worked out at 7.37 ± 1.67 µM.

`CN(C)c1ccc(Nc2cnc3ccccc3n2)cn1` [P02]: the IC50 in experiment [2] (Leishmania major, 72 h) was above 50 µM; in experiment [3], above 50 µM; in experiment [4] (setting [6]), 23.6 ± 0.86 µM; in experiment [1] (Leishmania donovani, 72 h), above 50 µM.

Consider `Cn1ncc(-c2nc3cc(S(N)(=O)=O)ccc3[nH]2)n1` [P04, 2-(2-methyl-2H-1,2,3-triazol-4-yl)-1H-benzo[d]imidazole-5-sulfonamide], for which the IC50 in experiment [2] (Leishmania major, 72 h) was above 50 µM; in experiment [3], 12.1 ± 2.19 µM; in experiment [4] (setting [6]) it was 14.6 ± 0.76 µM; in experiment [1] (Leishmania donovani, 72 h) it was above 50 µM.

With `COc1ccc(NC(=O)C2(S(=O)(=O)c3ccc(Cl)cc3)CCCC2)cn1` [P08, 1-((4-chlorophenyl)sulfonyl)-N-(6-methoxypyridin-3-yl)cyclopentane-1-carboxamide], the IC50 in experiment [2] (Leishmania major, 72 h) was above 50 µM; in experiment [3], above 50 µM; in experiment [4] (setting [6]), 3.89 ± 0.15 µM; in experiment [1] (Leishmania donovani, 72 h), above 50 µM.

As for `O=C(Nc1nc2ccccc2nc1N1CCCC1)c1ccc(Cn2cccn2)cc1` [P10, 4-((1H-pyrazol-1-yl)methyl)-N-(3-(pyrrolidin-1-yl)quinoxalin-2-yl)], the “Activity against intracellular amastigote form of Leishmania” value in experiment [5] is “inactive”. The “Growth inhibition of L. major (in words)” value in experiment [2] is given as “not active”. The IC50 in experiment [2] (Leishmania major, 72 h) is above 50 µM; in experiment [3] it was above 50 µM; in experiment [4] (setting [6]) it was ~16 µM and 16.2 µM; in experiment [1] (Leishmania donovani, 72 h) it was 3.3 ± 0.23 µM. The “Growth inhibition of T. brucei (in words)” value in experiment [3] is listed as “not active”.

With `Cc1ccc(C(=O)Nc2nc3ccccc3nc2N2CCCC2)cc1S(C)(=O)=O` [P16], the “Growth inhibition of L. major (in words)” value in experiment [2] was “not able to inhibit the growth”. Moreover, the IC50 in experiment [2] (Leishmania major, 72 h) is above 50 µM; in experiment [3], above 50 µM; in experiment [4] (setting [6]) it was ~16 µM and 16.9 µM; in experiment [1] (Leishmania donovani, 72 h), above 50 µM. Moreover, the “Growth inhibition of T. brucei (in words)” value in experiment [3] was “not able to inhibit the growth”. The “Growth inhibition of L. donovani (in words)” value in experiment [1] is “not able to inhibit the growth”.

For the compound `Cc1cc(C(=O)Nc2cc(C(N)=O)ccc2N2CCCCC2)c2c(C)noc2n1` [P17], the IC50 is above 50 µM in experiment [2] (Leishmania major, 72 h); above 50 µM in experiment [3]; 25.2 ± 0.89 µM in experiment [4] (setting [6]); above 50 µM in experiment [1] (Leishmania donovani, 72 h).

Turning to `CNc1ccc(Nc2ncnc3sccc23)cn1` [P20, N^2-methyl-N^5-(thieno [2,3-d]pyrimidin-4-yl)pyridine-2,5-diamine], in experiment [5], the “Activity against intracellular amastigote form of Leishmania” value was “inactive”. Besides, the “Growth inhibition of L. major (in words)” value in experiment [2] is “inhibitory activity”. For the same compound, the IC50 in experiment [2] amounted to 19.2 ± 2.65 µM; in experiment [2] (Leishmania major, 72 h) it was 12.2 ± 1.36 µM; in experiment [3], 3.06 ± 0.38 µM; in experiment [4] (setting [6]), 16.5 ± 0.79 µM; in experiment [1] it was 12.2 ± 1.36 µM; in experiment [1] (Leishmania donovani, 72 h), 19.2 ± 2.65 µM. Moreover, the “Growth inhibition of T. brucei (in words)” value in experiment [3] was “inhibitory activity”. In addition, in experiment [1], the “Growth inhibition of L. donovani (in words)” value is “inhibitory activity”.

As to `CCc1ncc2c(n1)CN(Cc1cc(=O)n3cccc(C)c3n1)CC2` [P21], the IC50 in experiment [2] (Leishmania major, 72 h) was above 50 µM; in experiment [3] it was above 50 µM; in experiment [4] (setting [6]) it was 24.5 ± 1.05 µM; in experiment [1] (Leishmania donovani, 72 h), above 50 µM.

`CCOc1ccc(NC2CCN(Cc3cscn3)CC2)cn1` [P28]: the IC50 in experiment [2] (Leishmania major, 72 h) is above 50 µM; in experiment [3], above 50 µM; in experiment [4] (setting [6]), 16 ± 0.96 µM; in experiment [1] (Leishmania donovani, 72 h) it was above 50 µM.

Regarding `N=C(N)c1ccc(OCCCCCOc2ccc(C(=N)N)cc2)cc1` [Pentamidine, reference compound], in experiment [3], the IC50 was determined as 0.69 ± 0.05 µM.

On to ARLASKV [ARLASKV, reference compound], for which, in experiment [4] (setting [7]), the IC50 was above 60 µM.

As for SGAGSKL [SGAGSKL, reference compound], in experiment [4] (setting [7]), the IC50 turned out to be 10.7 µM.

Turning to TRYPAKL [TRYPAKL, reference compound], in experiment [4] (setting [7]), the IC50 was 3.61 µM.
